Measurements as given in ChEMBL document CHEMBL1909046, “DrugMatrix in vitro pharmacology data”.

Experiments:
[1] = target: T1, Polyunsaturated fatty acid lipoxygenase ALOX15 (Oryctolagus cuniculus, UniProt P12530); assay: biochemical; assay type: tissue-based, Reticulocytes;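 also: inhibition of 15-lipoxygenase enzyme activity measured with linoleic acid as the substrate; in other assays of this panel Not Active means under 50% inhibition at 10 µM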
T1 sequence (P12530 whole entry): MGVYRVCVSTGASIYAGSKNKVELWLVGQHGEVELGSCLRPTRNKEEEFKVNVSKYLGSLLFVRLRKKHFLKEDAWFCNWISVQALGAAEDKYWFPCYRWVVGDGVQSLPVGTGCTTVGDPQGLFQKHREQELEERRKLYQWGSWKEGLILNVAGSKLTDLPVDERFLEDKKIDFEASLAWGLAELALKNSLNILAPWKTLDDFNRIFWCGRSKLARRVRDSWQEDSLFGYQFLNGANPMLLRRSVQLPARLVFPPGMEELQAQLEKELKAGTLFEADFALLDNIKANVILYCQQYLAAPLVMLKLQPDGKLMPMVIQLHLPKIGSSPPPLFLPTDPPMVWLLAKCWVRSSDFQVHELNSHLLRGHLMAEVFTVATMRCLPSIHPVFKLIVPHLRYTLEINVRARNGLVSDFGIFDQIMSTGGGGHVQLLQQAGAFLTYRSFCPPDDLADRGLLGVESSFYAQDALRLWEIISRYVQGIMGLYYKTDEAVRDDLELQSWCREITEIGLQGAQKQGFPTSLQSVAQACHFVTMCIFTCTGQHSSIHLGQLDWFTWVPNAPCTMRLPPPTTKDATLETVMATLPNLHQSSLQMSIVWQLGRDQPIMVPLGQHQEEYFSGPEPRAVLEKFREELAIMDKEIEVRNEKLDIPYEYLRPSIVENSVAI

[2] = target: Sodium-dependent dopamine transporter (Homo sapiens, UniProt Q01959); assay: DRUGMATRIX: Dopamine Transporter radioligand binding (ligand: [125I] RTI-55); assay type: cell membranes, CHO-K1, Membrane; settings: Not Active = under 50% inhibition at 10 µM; for Ki: read-out: Ki
Chain of Sodium-dependent dopamine transporter (Q01959 whole entry): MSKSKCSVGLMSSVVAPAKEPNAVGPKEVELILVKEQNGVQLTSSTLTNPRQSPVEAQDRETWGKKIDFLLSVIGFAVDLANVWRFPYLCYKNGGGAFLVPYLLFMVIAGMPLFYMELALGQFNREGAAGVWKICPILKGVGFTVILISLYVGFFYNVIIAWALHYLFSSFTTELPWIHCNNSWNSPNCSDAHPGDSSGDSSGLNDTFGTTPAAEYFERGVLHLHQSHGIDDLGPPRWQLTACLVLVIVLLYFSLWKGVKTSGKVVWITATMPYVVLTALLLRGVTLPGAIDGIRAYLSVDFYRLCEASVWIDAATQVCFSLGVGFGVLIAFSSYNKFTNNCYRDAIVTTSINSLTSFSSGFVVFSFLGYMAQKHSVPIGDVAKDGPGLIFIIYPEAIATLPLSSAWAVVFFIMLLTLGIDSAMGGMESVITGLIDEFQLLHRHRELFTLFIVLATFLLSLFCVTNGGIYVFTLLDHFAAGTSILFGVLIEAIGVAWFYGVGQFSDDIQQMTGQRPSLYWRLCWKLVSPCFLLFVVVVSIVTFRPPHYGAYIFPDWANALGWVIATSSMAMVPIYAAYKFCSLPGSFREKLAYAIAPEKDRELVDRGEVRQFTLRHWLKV

[3] = target: T2, 5-hydroxytryptamine receptor 2C (Homo sapiens, UniProt P28335); assay: DRUGMATRIX: Serotonin (5-Hydroxytryptamine) 5-HT2C radioligand binding (ligand: [3H] Mesulergine); assay type: cell membranes, CHO-K1, Membrane; settings: Not Active = under 50% inhibition at 10 µM
T2 sequence (P28335 whole entry): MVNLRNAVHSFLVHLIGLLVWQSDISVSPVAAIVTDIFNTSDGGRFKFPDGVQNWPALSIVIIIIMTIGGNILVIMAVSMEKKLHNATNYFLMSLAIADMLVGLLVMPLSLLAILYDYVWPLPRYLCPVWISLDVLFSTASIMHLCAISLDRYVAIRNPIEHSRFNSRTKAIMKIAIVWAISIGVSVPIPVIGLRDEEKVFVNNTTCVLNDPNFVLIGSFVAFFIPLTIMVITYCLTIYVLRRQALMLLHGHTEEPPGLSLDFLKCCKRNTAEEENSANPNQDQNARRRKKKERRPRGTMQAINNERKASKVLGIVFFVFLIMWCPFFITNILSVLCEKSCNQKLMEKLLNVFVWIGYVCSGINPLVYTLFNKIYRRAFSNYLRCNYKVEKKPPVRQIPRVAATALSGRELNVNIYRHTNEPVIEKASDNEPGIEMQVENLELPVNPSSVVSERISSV

Estrogen receptor = target: T3, Estrogen receptor (Homo sapiens, UniProt P03372); settings: sf9; also: in other assays of this panel Not Active means under 50% inhibition at 10 µM
T3 sequence (P03372 whole entry): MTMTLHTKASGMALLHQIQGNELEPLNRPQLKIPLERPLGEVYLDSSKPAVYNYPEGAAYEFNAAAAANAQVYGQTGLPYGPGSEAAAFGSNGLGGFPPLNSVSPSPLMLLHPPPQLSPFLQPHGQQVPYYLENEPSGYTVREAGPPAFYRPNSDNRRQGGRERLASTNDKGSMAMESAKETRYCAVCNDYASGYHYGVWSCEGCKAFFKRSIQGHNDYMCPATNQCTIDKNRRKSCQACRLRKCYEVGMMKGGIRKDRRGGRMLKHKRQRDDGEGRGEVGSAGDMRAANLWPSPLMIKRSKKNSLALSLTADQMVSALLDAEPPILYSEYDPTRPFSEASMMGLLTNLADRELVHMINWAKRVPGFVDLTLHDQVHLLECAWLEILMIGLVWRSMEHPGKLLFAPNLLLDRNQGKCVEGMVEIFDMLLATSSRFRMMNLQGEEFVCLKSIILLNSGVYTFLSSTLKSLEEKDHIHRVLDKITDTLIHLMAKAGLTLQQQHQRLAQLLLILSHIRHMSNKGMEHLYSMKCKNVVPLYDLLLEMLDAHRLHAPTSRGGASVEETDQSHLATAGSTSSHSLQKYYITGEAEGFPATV

Androgen receptor = target: T4, Androgen receptor (Rattus norvegicus, UniProt P15207); also: in other assays of this panel Not Active means under 50% inhibition at 10 µM
T4 sequence (P15207 whole entry): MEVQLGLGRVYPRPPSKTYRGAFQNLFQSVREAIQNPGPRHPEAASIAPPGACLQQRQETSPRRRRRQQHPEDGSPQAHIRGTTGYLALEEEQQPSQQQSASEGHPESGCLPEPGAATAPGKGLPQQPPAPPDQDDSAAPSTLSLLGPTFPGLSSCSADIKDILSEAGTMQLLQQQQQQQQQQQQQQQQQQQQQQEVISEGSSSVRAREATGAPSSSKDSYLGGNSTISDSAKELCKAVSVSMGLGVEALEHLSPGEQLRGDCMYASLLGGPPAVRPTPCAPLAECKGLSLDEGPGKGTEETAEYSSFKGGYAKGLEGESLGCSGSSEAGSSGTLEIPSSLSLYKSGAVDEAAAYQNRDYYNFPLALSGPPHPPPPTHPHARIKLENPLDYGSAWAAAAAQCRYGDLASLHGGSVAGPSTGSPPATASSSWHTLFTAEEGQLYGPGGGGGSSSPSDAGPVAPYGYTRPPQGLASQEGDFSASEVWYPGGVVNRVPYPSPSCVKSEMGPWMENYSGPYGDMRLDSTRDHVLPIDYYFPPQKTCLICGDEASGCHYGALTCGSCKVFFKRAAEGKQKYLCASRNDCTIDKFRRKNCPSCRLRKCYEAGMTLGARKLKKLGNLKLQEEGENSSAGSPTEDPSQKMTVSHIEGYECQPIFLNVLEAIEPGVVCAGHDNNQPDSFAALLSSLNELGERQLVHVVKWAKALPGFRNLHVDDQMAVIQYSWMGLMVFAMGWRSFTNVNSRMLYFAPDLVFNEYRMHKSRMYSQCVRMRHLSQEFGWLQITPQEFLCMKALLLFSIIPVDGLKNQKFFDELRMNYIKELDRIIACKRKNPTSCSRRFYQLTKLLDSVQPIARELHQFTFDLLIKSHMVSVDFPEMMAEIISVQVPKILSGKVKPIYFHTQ

SMILES | IC50 ([1]; reticulocytes) | IC50 ([2]; cho-k1) | IC50 ([3]; cho-k1) | IC50 (Estrogen receptor) | IC50 (Androgen receptor) | IC50 ([3]; read-out: IC50) | Ki ([3]; read-out: Ki) | IC50 ([1]; read-out: IC50) | IC50 ([2]; read-out: IC50) | Ki [2]
CC1=C(CC(=O)O)c2cc(F)ccc2/C1=C\c1ccc([S+](C)[O-])cc1 (stereo not drawn) | Not Active | Not Active | Not Active | – | – | – | – | – | – | –
N[C@H](CSC(=S)NCc1ccccc1)C(=O)O | Not Active | Not Active | Not Active | Not Active | Not Active | – | – | – | – | –
CC(=O)N[C@@H]1[C@H](Oc2c3cc4cc2Oc2ccc(cc2Cl)[C@@H](O[C@@H]2O[C@@H](CO)[C@@H](O)[C@H](O)[C@@H]2NC(C)=O)[C@@H]2NC(=O)[C@H](NC(=O)[C@@H]4NC(=O)[C@H]4NC(=O)[C@@H](Cc5ccc(c(Cl)c5)O3)NC(=O)[C@H](N)c3ccc(O)c(c3)Oc3cc(O)cc4c3)c3ccc(O)c(c3)-c3c(O[C@H]4O[C@H](CO)[C@@H](O)[C@@H](O)[C@@H]4O)cc(O)cc3[C@@H](C(=O)O)NC2=O)O[C@@H](CO)[C@@H](O)[C@@H]1O | Not Active | Not Active | Not Active | Not Active | Not Active | – | – | – | – | –
Clc1ccc2c(c1)C(N1CCNCC1)=Nc1ccccc1O2 [AMOXAPINE] | Not Active | Not Active | – | Not Active | – | – | – | – | – | –
COc1cc2c(c(OC)c1OC)-c1ccc(OC)c(=O)cc1[C@@H](NC(C)=O)CC2 [COLCHICINE] | Not Active | Not Active | Not Active | Not Active | Not Active | – | – | – | – | –
CN1CCC(=C2c3ccccc3C=Cc3ccccc32)CC1 [CYPROHEPTADINE] | Not Active | Not Active | – | Not Active | – | 0.00244 µM | 0.00128 µM | – | – | –
CC/C(=C(/CC)c1ccc(O)cc1)c1ccc(O)cc1 [DIETHYLSTILBESTROL] | – | – | – | – | – | – | – | 2.96 µM | – | –
CC(=O)N1CCN(c2ccc(OCC3COC(Cn4ccnc4)(c4ccc(Cl)cc4Cl)O3)cc2)CC1 (stereo not drawn) [KETOCONAZOLE] | – | – | Not Active | Not Active | – | – | – | 5.42 µM | 23.5 µM | 18.7 µM
C=CCN1CC[C@]23c4c5ccc(O)c4O[C@H]2C(=O)CC[C@@]3(O)[C@H]1C5 [NALOXONE] | Not Active | Not Active | Not Active | – | – | – | – | – | – | –
COCCOC(=O)C1=C(C)NC(C)=C(C(=O)OC(C)C)C1c1cccc([N+](=O)[O-])c1 (stereo not drawn) [NIMODIPINE] | Not Active | Not Active | Not Active | Not Active | – | – | – | – | – | –
CC(C)NCC(O)COc1cccc2ccccc12 (stereo not drawn) [PROPRANOLOL] | Not Active | – | – | – | – | – | – | – | – | –
COCCCOc1ccnc(C[S+]([O-])c2nc3ccccc3[nH]2)c1C (stereo not drawn) [RABEPRAZOLE] | Not Active | Not Active | Not Active | – | – | – | – | – | – | –
O=C(c1ccc(OCCN2CCCCC2)cc1)c1c(-c2ccc(O)cc2)sc2cc(O)ccc12 [RALOXIFENE] | Not Active | – | – | – | – | – | – | – | – | –
CNC(=C[N+](=O)[O-])NCCSCc1ccc(CN(C)C)o1 [RANITIDINE] | Not Active | Not Active | Not Active | Not Active | – | – | – | – | – | –
CC(C)c1nc(CN(C)C(=O)N[C@H](C(=O)N[C@@H](Cc2ccccc2)C[C@H](O)[C@H](Cc2ccccc2)NC(=O)OCc2cncs2)C(C)C)cs1 [RITONAVIR] | Not Active | Not Active | Not Active | Not Active | – | – | – | – | – | –
CC(C)CC(N(C)C)C1(c2ccc(Cl)cc2)CCC1 (stereo not drawn) [SIBUTRAMINE] | Not Active | – | Not Active | – | – | – | – | – | 0.632 µM | 0.502 µM
[H]/N=C(/N)N[C@H]1[C@H](O)[C@@H](O)[C@H](O[C@@H]2O[C@@H](C)[C@](O)(C=O)[C@H]2O[C@@H]2O[C@@H](CO)[C@H](O)[C@@H](O)[C@@H]2NC)[C@@H](N/C(N)=N\[H])[C@@H]1O [STREPTOMYCIN] | Not Active | Not Active | Not Active | Not Active | – | – | – | – | – | –
Cc1cc(C)nc(NS(=O)(=O)c2ccc(N)cc2)n1 [SULFAMETHAZINE] | Not Active | Not Active | Not Active | – | – | – | – | – | – | –
C[C@]1(Cn2ccnn2)[C@H](C(=O)O)N2C(=O)C[C@H]2S1(=O)=O [TAZOBACTAM] | Not Active | Not Active | Not Active | Not Active | – | – | – | – | – | –
CN1C(C(=O)Nc2ccccn2)=C(O)c2sccc2S1(=O)=O [TENOXICAM] | Not Active | Not Active | Not Active | Not Active | – | – | – | – | – | –
CC(C)(C)c1ccc(C(O)CCCN2CCC(C(O)(c3ccccc3)c3ccccc3)CC2)cc1 (stereo not drawn) [TERFENADINE] | Not Active | – | – | Not Active | – | – | – | – | – | –
O=C1CCC(N2C(=O)c3ccccc3C2=O)C(=O)N1 (stereo not drawn) [THALIDOMIDE] | Not Active | Not Active | Not Active | – | – | – | – | – | – | –
Cc1cccc(Nc2ccncc2S(=O)(=O)NC(=O)NC(C)C)c1 [TORSEMIDE] | Not Active | Not Active | Not Active | Not Active | – | – | – | – | – | –
CC(C)C[C@H](NC(=O)[C@@H](O)[C@H](N)Cc1ccccc1)C(=O)O [UBENIMEX] | Not Active | Not Active | Not Active | Not Active | – | – | – | – | – | –
Cc1onc(-c2ccccc2)c1-c1ccc(S(N)(=O)=O)cc1 [VALDECOXIB] | Not Active | Not Active | Not Active | – | – | – | – | – | – | –
CC[C@]1(O)C[C@@H]2CN(CCc3c([nH]c4ccccc34)[C@@](C(=O)OC)(c3cc4c(cc3OC)N(C)[C@H]3[C@@](O)(C(=O)OC)[C@H](OC(C)=O)[C@]5(CC)C=CCN6CC[C@]43[C@@H]65)C2)C1 [VINBLASTINE] | – | Not Active | Not Active | Not Active | – | – | – | 5.04 µM | – | –
CC(=O)CC(c1ccccc1)c1c(O)c2ccccc2oc1=O (stereo not drawn) [WARFARIN] | Not Active | Not Active | Not Active | – | – | – | – | – | – | –
[Cl-].[Cl-].[Zn+2] [ZINC CHLORIDE] | Not Active | Not Active | Not Active | Not Active | – | – | – | – | – | –
